Experimental data published in patent publication US20230114728A1 (Venatorx Pharmaceuticals, Inc., priority 2019, published 2023).
Values after ≈ are worked out from the molar mass of the structure shown. Where two headings read alike, the source gives them in different places.

What was measured:
Type in all cases: cell-based
[1] = tested on: N. gonorrhoeae WHO K; experiment: Liquid broth MIC in Fastidious broth; details: Neisseria gonorrhoeae
Method in brief: (§1)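 Broth microdilution in Fastidious broth with 2-fold compound series; inoculum from 24 h chocolate agar colonies, 5×10^5 CFU/mL start. Incubated ~24 hours at 36° C, 5% CO2. MIC read visually as lowest concentration giving <10% growth versus full-growth wells; strains carry mosaic PBP2.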

[2] = tested on: N. gonorrhoeae H041; experiment: Liquid broth MIC in Fastidious broth; details: Neisseria gonorrhoeae
Method in brief: as §1

[3] = tested on: N. gonorrhoeae WHO G; experiment: Liquid broth MIC in Fastidious broth; details: Neisseria gonorrhoeae, Fastidious broth
Method in brief: (§2)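 Colonies were swabbed from chocolate agar after 24 h growth and standardised by optical density at 600 nm. Compounds were serially diluted twofold in Fastidious broth, and bacteria added to give 5×10^5 CFU/mL. After about 24 h at 36 °C in 5% CO2, the lowest concentration allowing under 10% growth was taken as MIC.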

[4] = tested on: N. gonorrhoeae WHO Z; experiment: Liquid broth MIC in Fastidious broth; details: Neisseria gonorrhoeae
Method in brief: as §1

[5] = tested on: N. gonorrhoeae WHO Q; experiment: Liquid broth MIC in Fastidious broth; details: Neisseria gonorrhoeae
Method in brief: as §1

[6] = tested on: N. gonorrhoeae ATCC 49226; experiment: Liquid broth MIC in Fastidious broth; details: Neisseria gonorrhoeae, ATCC49226, Fastidious broth
Method in brief: as §2

[7] = tested on: N. gonorrhoeae WHO L; experiment: Liquid broth MIC in Fastidious broth; details: Neisseria gonorrhoeae, Fastidious broth
Method in brief: as §2

[8] = tested on: N. gonorrhoeae FA1090; experiment: Liquid broth MIC in Fastidious broth; details: Neisseria gonorrhoeae, Fastidious broth
Method in brief: as §2

[9] = tested on: E. coli D22; experiment: Broth microdilution MIC in CAMHB; details: Escherichia coli; E. coli D22 (hyper-permeable); MHB; read-out: Minimum Inhibitory Concentration, E. coli D22
Method in brief: (§3)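 CLSI broth microdilution in CAMHB: 2-fold compound dilutions inoculated at 2-8×10^5 CFU/mL from 3-5 h log-phase cultures. Incubated at 37 °C for 16-20 h (Enterobacteriaceae, Pseudomonas); MIC read visually as lowest concentration without growth. Strains include hyper-permeable and efflux-deficient mutants.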

[10] = tested on: E. coli 901C; experiment: Broth microdilution MIC in CAMHB; details: Escherichia coli; E. coli 901C (hyper-permeable); MHB; read-out: Minimum Inhibitory Concentration, E. coli 901C
Method in brief: as §3

[11] = tested on: E. coli AG100; experiment: Broth microdilution MIC in CAMHB; details: Escherichia coli; E. coli AG100 (wild-type parent); MHB; read-out: Minimum Inhibitory Concentration, E. coli AG100
Method in brief: as §3

[12] = tested on: E. coli AG100A; experiment: Broth microdilution MIC in CAMHB; details: Escherichia coli, read-out: Minimum Inhibitory Concentration, E. coli AG100A
Method in brief: as §3

[13] = tested on: K. pneumoniae UMM producing SHV-5 and KPC-2; experiment: Broth microdilution MIC in CAMHB; details: Klebsiella pneumoniae, read-out: Minimum Inhibitory Concentration, K. pneumoniae UMM
Method in brief: as §3

[14] = read-out: Minimum Inhibitory Concentration, N. gonorrhoeae WHO K
[15] = H041, read-out: Minimum Inhibitory Concentration, N. gonorrhoeae H041
[16] = N. gonorrhoeae strain WHO G, read-out: Minimum Inhibitory Concentration, N. gonorrhoeae WHO G
[17] = read-out: Minimum Inhibitory Concentration, N. gonorrhoeae WHO Z
[18] = read-out: Minimum Inhibitory Concentration, N. gonorrhoeae WHO Q
[19] = N. gonorrhoeae strain ATCC 49226, read-out: Minimum Inhibitory Concentration, N. gonorrhoeae ATCC 49226
[20] = N. gonorrhoeae strain WHO L, read-out: Minimum Inhibitory Concentration, N. gonorrhoeae WHO L
[21] = N. gonorrhoeae strain FA1090, read-out: Minimum Inhibitory Concentration, N. gonorrhoeae FA1090
[22] = read-out: Minimum Inhibitory Concentration, WHO K
[23] = H041, read-out: Minimum Inhibitory Concentration, H041
[24] = N. gonorrhoeae WHO G, read-out: Minimum Inhibitory Concentration, WHO G
[25] = read-out: Minimum Inhibitory Concentration, WHO Z
[26] = read-out: Minimum Inhibitory Concentration, WHO Q
[27] = N. gonorrhoeae ATCC 49226, read-out: Minimum Inhibitory Concentration, ATCC 49226
[28] = N. gonorrhoeae WHO L, read-out: Minimum Inhibitory Concentration, WHO L
[29] = N. gonorrhoeae FA1090, read-out: Minimum Inhibitory Concentration, FA1090

Compound	MIC [1, 14] [µg/mL]	MIC [2, 15] [µg/mL]	MIC [3, 16] [µg/mL]	MIC [4, 17] [µg/mL]	MIC [5, 18] [µg/mL]	MIC [6, 19] [µg/mL]	MIC [7, 20] [µg/mL]	MIC [8, 21] [µg/mL]	MIC [9] [µg/mL]	MIC [10] [µg/mL]	MIC [11] [µg/mL]	MIC [12] [µg/mL]	MIC [13] [µg/mL]	MIC [1, 22] [µg/mL]	MIC [2, 23] [µg/mL]	MIC [3, 24] [µg/mL]	MIC [4, 25] [µg/mL]	MIC [5, 26] [µg/mL]	MIC [6, 27] [µg/mL]	MIC [7, 28] [µg/mL]	other results
CCN1CCN(C(=O)NC(C(=O)N[C@H]2Cc3cccc(C(=O)O)c3OB2O)c2ccc(O)c(Cl)c2F)C(=O)C1=O (stereo partly drawn) [Example 185, (3R)-3-(2-(3-chloro-2-fluoro-4-hydroxyphenyl)-2-(4-ethyl-2,3-dioxopiperazine-1-carboxamido)acetamido)-2-hydroxy-3,4-dihydro-2H-benzo[e][1,2]oxaborinine-8-carboxylic acid]	16 to 32 (≈ 27.7 to 55.5 µM)	16 to 32 (≈ 27.7 to 55.5 µM)	4 to 8 (≈ 6.94 to 13.9 µM)	4 to 8 (≈ 6.94 to 13.9 µM)	16 to 32 (≈ 27.7 to 55.5 µM)	4 to 8 (≈ 6.94 to 13.9 µM)	16 to 32 (≈ 27.7 to 55.5 µM)	< 0.125	2 to 4 (≈ 3.47 to 6.94 µM)	< 0.25	32 to 64 (≈ 55.5 to 111 µM)	2 to 4 (≈ 3.47 to 6.94 µM)	32 to 64 (≈ 55.5 to 111 µM)								
CCN1CCN(C(=O)N[C@@H](C(=O)N[C@H]2Cc3cccc(C(=O)O)c3OB2O)c2ccc(C(=O)O)c(F)c2Cl)C(=O)C1=O (single isomer, unassigned) [Example 203]									2 to 4 (≈ 3.31 to 6.61 µM)	< 0.25	32 to 64 (≈ 52.9 to 106 µM)	8 to 16 (≈ 13.2 to 26.5 µM)	32 to 64 (≈ 52.9 to 106 µM)	16 to 32 (≈ 26.5 to 52.9 µM)	16 to 32 (≈ 26.5 to 52.9 µM)	4 to 8 (≈ 6.61 to 13.2 µM)	4 to 8 (≈ 6.61 to 13.2 µM)	4 to 8 (≈ 6.61 to 13.2 µM)	4 to 8 (≈ 6.61 to 13.2 µM)	> 64	MIC [8, 29]: 0.25 to 0.5 µg/mL (≈ 0.413 to 0.827 µM)
CCN1CCN(C(=O)NC(C(=O)N[C@H]2Cc3cccc(C(=O)O)c3OB2O)c2cc(C#N)c(OC)cc2F)C(=O)C1=O (stereo partly drawn) [Example 192, (3R)-3-(2-(5-cyano-2-fluoro-4-methoxyphenyl)-2-(4-ethyl-2,3-dioxopiperazine-1-carboxamido)acetamido)-2-hydroxy-3,4-dihydro-2H-benzo[e][1,2]oxaborinine-8-carboxylic acid]	> 64	> 64	> 64	> 64	> 64	> 64	> 64	4 to 8 (≈ 6.88 to 13.8 µM)	32 to 64 (≈ 55 to 110 µM)	2 to 4 (≈ 3.44 to 6.88 µM)	> 128	32 to 64 (≈ 55 to 110 µM)	> 128								
NCCN1CCN(C(=O)N[C@@H](C(=O)N[C@H]2Cc3cccc(C(=O)O)c3OB2O)c2ccc(O)c([N+](=O)[O-])c2)C(=O)C1=O (single isomer, unassigned) [Example 199]	> 64	> 64	16 to 32 (≈ 27.4 to 54.8 µM)	> 64	> 64	16 to 32 (≈ 27.4 to 54.8 µM)	> 64	1 to 2 (≈ 1.71 to 3.42 µM)	8 to 16 (≈ 13.7 to 27.4 µM)	0.5 to 1 (≈ 0.856 to 1.71 µM)	> 128	2 to 4 (≈ 3.42 to 6.85 µM)	> 128								
CCN1CCN(C(=O)N[C@H](C(=O)N[C@H]2Cc3cccc(C(=O)O)c3OB2O)c2ccc(C(=O)O)c(F)c2Cl)C(=O)C1=O (single isomer, unassigned) [Example 202]									8 to 16 (≈ 13.2 to 26.5 µM)	0.5 to 1 (≈ 0.827 to 1.65 µM)	> 128	32 to 64 (≈ 52.9 to 106 µM)	> 128	> 64	> 64	16 to 32 (≈ 26.5 to 52.9 µM)	16 to 32 (≈ 26.5 to 52.9 µM)	> 64	16 to 32 (≈ 26.5 to 52.9 µM)	> 64	MIC [8, 29]: 4 to 8 µg/mL (≈ 6.61 to 13.2 µM)
NCCN1CCN(C(=O)N[C@@H](C(=O)N[C@H]2Cc3cccc(C(=O)O)c3OB2O)c2ccc(O)c(Cl)c2F)C(=O)C1=O (single isomer, unassigned) [Example 186]	> 64	> 64	4 to 8 (≈ 6.76 to 13.5 µM)	> 64	> 64	16 to 32 (≈ 27 to 54.1 µM)	> 64	0.25 to 0.5 (≈ 0.422 to 0.845 µM)	2 to 4 (≈ 3.38 to 6.76 µM)	0.5 to 1 (≈ 0.845 to 1.69 µM)	8 to 16 (≈ 13.5 to 27 µM)	2 to 4 (≈ 3.38 to 6.76 µM)	32 to 64 (≈ 54.1 to 108 µM)								
